Key:
Type in all cases: cell-based
[1] = tested on: Ba/F3 cells expressing EGFR-wt; test: Growth inhibition (GI50) of Ba/F3 cells expressing EGFR-wt, Celltiter glo; conditions: Mus musculus, BaF3, 72 h
Summary of the method: (§1)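 Viability read by CellTiter-Glo after 72 h compound exposure (37 °C, 5% CO2) of variant-expressing Ba/F3 cells plated at 100,000 cells/ml. Dosing 4 h post-seeding; 10-pt 4-fold series from 2 mM stock; 0.5% DMSO. GI50 = molar concentration (μM) giving half-maximal growth inhibition.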

[2] = tested on: Ba/F3 cells expressing del19/T790M/C797S (EGFR-DTC); test: Growth inhibition (GI50) of Ba/F3 cells expressing del19/T790M/C797S (EGFR-DTC), Celltiter glo; conditions: Mus musculus, BaF3, 72 h
Summary of the method: as §1

[3] = tested on: Ba/F3 cells expressing L858R/T790M/C797S (EGFR-LTC); test: Growth inhibition (GI50) of Ba/F3 cells expressing L858R/T790M/C797S (EGFR-LTC), Celltiter glo; conditions: Mus musculus, BaF3, 72 h
Summary of the method: as §1

[4] = tested on: Ba/F3 cells expressing del19/T790M (EGFR-DT); test: Growth inhibition (GI50) of Ba/F3 cells expressing del19/T790M (EGFR-DT), Celltiter glo; conditions: Mus musculus, BaF3, 72 h
Summary of the method: as §1

[5] = tested on: Ba/F3 cells expressing L858R/T790M (EGFR-LT); test: Growth inhibition (GI50) of Ba/F3 cells expressing L858R/T790M (EGFR-LT), Celltiter glo; conditions: Mus musculus, BaF3, 72 h
Summary of the method: as §1

parental Ba/F3 cell line = test: Growth inhibition (GI50) of the parental Ba/F3 cell line (not introduced with EGFR variants), Celltiter glo; conditions: Mus musculus, BaF3, 72 h, parental Ba/F3 cells
Summary of the method: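 Viable cell count by CellTiter-Glo after 72 h at 37 °C gave GI50 values (μM, 50% growth inhibition). Cells lacking EGFR variants were seeded at 100,000 cells/ml and dosed 4 h later with 4-fold serial dilutions from a 2 mM stock, 0.5% DMSO.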

| SMILES | GI50 [1] [nM] | GI50 [2] [nM] | GI50 [3] [nM] | GI50 [4] [nM] | GI50 [5] [nM] | GI50 (parental Ba/F3 cell line) [nM] |
| --- | --- | --- | --- | --- | --- | --- |
| COc1cc(N2CCC(N3CCN(C)CC3)CC2)c(Cl)cc1Nc1ncc(Br)c(Nc2ccccc2N=S(C)(C)=O)n1 [Example 143] | 100 to 500 | 100 to 500 | 100 to 500 | 500 to 2000 | 500 to 2000 | 100 to 500 |
| Cc1cc(Nc2ncc(Br)c(Nc3ccccc3N=S(C)(C)=O)n2)c(Cl)cc1N1CCC(N2CCN(C)CC2)CC1 [Example 144] | 500 to 2000 | 500 to 2000 | 100 to 500 | 500 to 2000 | 100 to 500 | 500 to 2000 |
| COc1cc(N2CCC(N3CCC(C(F)(F)F)CC3)CC2)c(C)cc1Nc1ncc(Br)c(Nc2ccc(F)cc2NS(C)(=O)=O)n1 [Example 148, N-(2-((5-bromo-2-((2-methoxy-5-methyl-4-(4-(trifluoromethyl)-[1,4′-bipiperidin]-1′-yl)phenyl)amino)pyrimidin-4-yl)amino)-5-fluorophenyl)methanesulfonamide] | 500 to 2000 | 100 to 500 | 100 to 500 | 100 to 500 | 500 to 2000 | 500 to 2000 |
| COc1cc(N2CCC(N3CCCC(N(C)C)C3)CC2)c(Cl)cc1Nc1ncc(Br)c(Nc2ccc(F)cc2NS(C)(=O)=O)n1 (stereo not drawn) [Example 149, N-(2-((5-bromo-2-((5-chloro-4-(3-(dimethylamino)-[1,4′-bipiperidin]-1′-yl)-2-methoxyphenyl)amino)pyrimidin-4-yl)amino)-5-fluorophenyl)methanesulfonamide] | 100 to 500 | 100 to 500 | 25 to 100 | 100 to 500 | 100 to 500 | 100 to 500 |
| COc1cc(N2CCC(N3CCN(C)CC3)CC2)c(C)cc1Nc1nnc(Cl)c(Nc2cc(Cl)ccc2NS(C)(=O)=O)n1 [Example 152, N-(4-chloro-2-((6-chloro-3-((-2-methoxy-5-methyl-4-(4-(4-methylpiperazin-1-yl)piperidin-1-yl)phenyl)amino)-1,2,4-triazin-5-yl)amino)phenyl)methanesulfonamide] | 100 to 500 | 1 to 25 | 1 to 25 | 1 to 25 | 1 to 25 | 500 to 2000 |
| COc1cc(N2CCC(N3CCN(C)CC3)CC2)c(C)cc1Nc1ncc(Cl)c(Nc2cc(Cl)ccc2P(C)(C)=O)n1 [Example 153, (4-chloro-2-((5-chloro-2-((2-methoxy-5-methyl-4-(4-(4-methylpiperazin-1-yl)piperidin-1-yl)phenyl)amino)pyrimidin-4-yl)amino)phenyl)dimethylphosphine oxide] | 500 to 2000 | 100 to 500 | 100 to 500 | 100 to 500 | 500 to 2000 | 2000 to 10000 |
| Cc1cc(Nc2ncc(Cl)c(Nc3cc(Cl)ccc3P(C)(C)=O)n2)c(Cl)cc1N1CCC(N2CCN(C)CC2)CC1 [Example 154, (4-chloro-2-((5-chloro-2-((2-chloro-5-methyl-4-(4-(4-methylpiperazin-1-yl)piperidin-1-yl)phenyl)amino)pyrimidin-4-yl)amino)phenyl)dimethylphosphine oxide] | 2000 to 10000 | 100 to 500 | 500 to 2000 | 500 to 2000 | 2000 to 10000 | 2000 to 10000 |
| COc1cc(N2CCC(N3CCN(C)CC3)CC2)c(C)cc1Nc1ncc(Br)c(Nc2cc(Cl)ccc2N(C)S(C)(=O)=O)n1 [Example 155, N-(2-((5-bromo-2-((2-methoxy-5-methyl-4-(4-(4-methylpiperazin-1-yl)piperidin-1-yl)phenyl)amino)pyrimidin-4-yl)amino)-4-chlorophenyl)-N-methylmethanesulfonamide] | 25 to 100 | 1 to 25 | 1 to 25 | 1 to 25 | 25 to 100 | 100 to 500 |
| COc1cc(N2CCC(N3CCN(C)CC3)CC2)c(Cl)cc1Nc1ncc(Br)c(Nc2cc(Cl)ccc2N(C)S(C)(=O)=O)n1 [Example 156, N-(2-((5-bromo-2-((5-chloro-2-methoxy-4-(4-(4-methylpiperazin-1-yl)piperidin-1-yl)phenyl)amino)pyrimidin-4-yl)amino)-4-chlorophenyl)-N-methylmethanesulfonamide] | 1 to 25 | 1 to 25 | 1 to 25 | 1 to 25 | 1 to 25 | 100 to 500 |
| Cc1cc(Nc2ncc(Cl)c(Nc3cc(Cl)ccc3NS(C)(=O)=O)n2)c(Cl)cc1N1CCC(N2CCC(N(C)C)C2)CC1 (stereo not drawn) [Example 157, N-(4-chloro-2-((5-chloro-2-((2-chloro-4-(4-(3-(dimethylamino)pyrrolidin-1-yl)piperidin-1-yl)-5-methylphenyl)amino)pyrimidin-4-yl)amino)phenyl)methanesulfonamide] | 100 to 500 | 100 to 500 | 25 to 100 | 25 to 100 | 25 to 100 | 500 to 2000 |
| Cc1cc(Nc2ncc(Cl)c(Nc3cc(Cl)ccc3NS(C)(=O)=O)n2)c(Cl)cc1N1CCC(N2CCN(C)CC2)CC1 [Example 158, N-(4-chloro-2-((5-chloro-2-((2-chloro-5-methyl-4-(4-(4-methylpiperazin-1-yl)piperidin-1-yl)phenyl)amino)pyrimidin-4-yl)amino)phenyl)methanesulfonamide] | 500 to 2000 | 1 to 25 | 1 to 25 | 25 to 100 | 25 to 100 | 2000 to 10000 |
| COc1cc(N2CCC(N3CCN(C)CC3)CC2)c(C)cc1Nc1ncc(Cl)c(Nc2cc(C(C)C)ccc2NS(C)(=O)=O)n1 [Example 160, N-(2-((5-chloro-2-((2-methoxy-5-methyl-4-(4-(4-methylpiperazin-1-yl)piperidin-1-yl)phenyl)amino)pyrimidin-4-yl)amino)-4-isopropylphenyl)methanesulfonamide] | 500 to 2000 | 25 to 100 | 100 to 500 | 100 to 500 | 100 to 500 | 2000 to 10000 |
| COc1cc(N2CCC(N3CCN(C)CC3)CC2)c(Cl)cc1Nc1ncc(Cl)c(Nc2cc(C(C)C)ccc2NS(C)(=O)=O)n1 [Example 161, N-(2-((5-chloro-2-((5-chloro-2-methoxy-4-(4-(4-methylpiperazin-1-yl)piperidin-1-yl)phenyl)amino)pyrimidin-4-yl)amino)-4-isopropylphenyl)methanesulfonamide] | 2000 to 10000 | 100 to 500 | 500 to 2000 | 100 to 500 | 500 to 2000 | 2000 to 10000 |
| Cc1cc(Nc2ncc(Cl)c(Nc3cc(Cl)ccc3NS(C)(=O)=O)n2)c(Cl)cc1N1CCC(N2CCCN(C)CC2)CC1 [Example 162, N-(4-chloro-2-((5-chloro-2-((2-chloro-5-methyl-4-(4-(4-methyl-1,4-diazepan-1-yl)piperidin-1-yl)phenyl)amino)pyrimidin-4-yl)amino)phenyl)methanesulfonamide] | 500 to 2000 | 100 to 500 | 2000 to 10000 | 2000 to 10000 | 2000 to 10000 | 2000 to 10000 |
| COc1cc(N2CCC(N3CCCN(C)CC3)CC2)c(Cl)cc1Nc1ncc(Cl)c(Nc2cc(Cl)ccc2NS(C)(=O)=O)n1 [Example 163, N-(4-chloro-2-((5-chloro-2-((5-chloro-2-methoxy-4-(4-(4-methyl-1,4-diazepan-1-yl)piperidin-1-yl)phenyl)amino)pyrimidin-4-yl)amino)phenyl)methanesulfonamide] | 2000 to 10000 | 100 to 500 | 2000 to 10000 | 2000 to 10000 | 2000 to 10000 | > 10000 |
| COc1cc(N2CCC(N3CCN(C)CC3)CC2)c(C)cc1Nc1nnc(Cl)c(Nc2ccc(F)cc2NS(C)(=O)=O)n1 [Example 164, N-(2-((6-chloro-3-((2-methoxy-5-methyl-4-(4-(4-methylpiperazin-1-yl)piperidin-1-yl)phenyl)amino)-1,2,4-triazin-5-yl)amino)-5-fluorophenyl)methanesulfonamide] | 2000 to 10000 | 100 to 500 | 2000 to 10000 | 2000 to 10000 | 2000 to 10000 | > 10000 |
| COc1cc(N2CCC(N3CCCN(C)CC3)CC2)c(C)cc1Nc1ncc(Cl)c(Nc2cc3c(cc2NS(C)(=O)=O)CCO3)n1 [Example 165, N-(6-((5-chloro-2-((2-methoxy-5-methyl-4-(4-(4-methyl-1,4-diazepan-1-yl)piperidin-1-yl)phenyl)amino)pyrimidin-4-yl)amino)-2,3-dihydrobenzofuran-5-yl)methanesulfonamide] | 500 to 2000 | 25 to 100 | 25 to 100 | 25 to 100 | 25 to 100 | 2000 to 10000 |
| CN(C)CCCn1cc(Nc2ncc(Cl)c(Nc3cc(Cl)ccc3NS(C)(=O)=O)n2)cn1 [Example 167, N-(4-chloro-2-((5-chloro-2-((1-(3-(dimethylamino)propyl)-1H-pyrazol-4-yl)amino)pyrimidine-4-yl)amino)phenyl)methanesulfonamide] | 500 to 2000 | 100 to 500 | 2000 to 10000 | 2000 to 10000 | 2000 to 10000 | 2000 to 10000 |
